The subject of this assay is multidrug-resistant (MDR) strains of Mycobacterium tuberculosis. Nature of the assay: microbe, parasite or virus in culture. It is filed as cell-based. The note with it: 192 h, read-out: MIC (μg/mL) MDR-TB, MDR-TB: resistant at least to isoniazid and rifampicin, REMA, 8 days incubation at 37° C.

Structures are written as SMILES.

For the molecule `Cc1cc(C)c[n+](CC(=O)c2ccc(F)cc2)c1.[Br-]` [Compound 3d, 1-(2-(4-Fluorophenyl)-2-oxoethyl)-3,5-dimethylpyridin-1-ium bromide], the MIC was around 8 µg/mL.

Values taken from patent publication US11939294B1 (priority 2023, dated 2024).
